Consider nine compounds from patent US20250122191A1, “COMPOUNDS AS BCL-2 INHIBITORS” (Fochon Biosciences, Ltd, priority 2021, published 2025).

For orientation: IC50 means the midpoint of a concentration-inhibition curve.

Read-outs that look alike come from different tables or passages of the source.

What all share (type): cell-based
For one assay, the system named is RS4;11-BCL-2 G101V cells. Briefly: Cell proliferation assay (MTS), RS4;11-BCL-2 G101V engineered cells. Particulars: 120 h, read-out: RS4, 11 BCL2-G101V IC50. In outline: (§1)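 Cells were plated, allowed to settle 4 h (G101V, F104L) or 24 h (D103E, D103Y), and treated with serially diluted compound (10000 down to 1.5 nM). After 120 h or 72 h respectively at 37 °C, MTS was added for 2 h and absorbance at 490 nm gave IC50 values.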

Another assay deals with RS4;11-BCL-2 F104L cells. Description: Cell proliferation assay (MTS), RS4;11-BCL-2 F104L engineered cells. Particulars: 120 h, read-out: RS4, 11 BCL2-F104L IC50. The text has this: MTS testing kit was purchased from Promega (Madison, WI, USA). The RPMI-1640, Fetal bovine serum and Penicillin-Streptomycin were purchased from BI (Biological Industries, Beit Haemek, Israel). Puromycin was purchased from Beyotime (shanghai, China). Dimethyl sulfoxide (DMSO) was purchased from Sigma (St. Louis., MO, USA). RS4;11-BCL-2 G101V (Cobioer Lot. #: CBD2021063013P4), RS4;11-BCL-2 D103E (Cobioer Lot. #: CBD2021063013P4), RS4;11-BCL-2 D103Y (Cobioer Lot. #: CBD2022012101P4) and RS4;11-BCL-2 F104L (Cobioer Lot. #: CBD2021063014P4) cells were cultured in RPMI1640 supplemented with 1 ug/mL puromycin, 100 U/mL Penicillin-Streptomycin and 10% FBS.
To investigate whether a compound is able to inhibit the activity of BCL-2 mutation in cells, a mechanism-based assay using engineered cell lines stably overexpressing BCL-2 mutation (RS4;11-BCL-2 G101V, RS4;11-BCL-2 D103E, RS4;11-BCL-2 D103Y, and RS4;11-BCL-2 F104L) was developed. In this assay, the inhibition of BCL-2 mutation was reflected by the inhibition of cell proliferation of engineered RS4;11 cells. Cells were plated into 96-well plates at optimized cell density (RS4;11-BCL-2 G101V: 5000 cells/well; RS4;11-BCL-2 D103E: 7500 cells/well; RS4;11-BCL-2 D103Y: 7500 cells/well; RS4;11-BCL-2 F104L: 5000 cells/well). Plates were incubated at 37° C., with 5% CO2 for 4 h (RS4;11-BCL-2 G101V, RS4;11-BCL-2 F104L) and 24 h (RS4;11-BCL-2 D103E, RS4;11-BCL-2 D103Y), respectively. Compounds were serially diluted and added to the plates with the final concentrations of 10000, 3333.3, 1111.1, 370.4, 123.5, 41.2, 13.7, 4.6 and 1.5 nM. Plates were incubated at 37° C., with 5% CO2 for 120 h (RS4; 11-BCL-2 G101V, RS4; 11-BCL-2 F104L) and 72 h (RS4;11-BCL-2 D103E, RS4;11-BCL-2 D103Y), respectively. 20 μl MTS was added into each well and the plates were incubated at 37° C., with 5% CO2 exactly for 2 h. The absorbance was measured by a microplate reader at 490 nm. IC50 values were calculated using GraphPad Prism 8.0 software.

In the next assay the test system is RS4;11-BCL-2 D103E cells. Briefly: Cell proliferation assay (MTS), RS4;11-BCL-2 D103E engineered cells. Particulars: Homo sapiens, 72 h, read-out: RS4, 11 BCL2-D103E IC50. In outline: as §1
A further assay deals with Toledo cells. Briefly: Cell proliferation assay (MTS), Toledo cells. Particulars: 72 h. In outline: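 Toledo cells (RPMI-1640, 10% FBS) seeded at 30000 cells/well, rested 4 h, then exposed 72 h at 37 °C, 5% CO2 to compound at nine final concentrations, 1.5–10000 nM. Viability by MTS (2 h), absorbance at 490 nm. IC50 from the concentration-response.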

As to `COc1cc(CN2CCN(C3CC4(CCN(c5ccc(C(=O)NS(=O)(=O)c6cnc(NC[C@H]7CC[C@](C)(O)CC7)c([N+](=O)[O-])c6)c(Oc6cc7c(F)c[nH]c7nc6OC)c5)CC4)C3)[C@H](c3ccccc3C(C)C)C2)cc(F)n1` [Example 53, 2-((3-fluoro-6-methoxy-1H-pyrrolo[2,3-b]pyridin-5-yl)oxy)-4-(2-((R)-4-((2-fluoro-6-methoxypyridin-4-yl)methyl)-2-(2-isopropylphenyl)piperazin-1-yl)-7-azaspiro[3.5]nonan-7-yl)-N-((6-((((1r,4r)-4-hydroxy-4-methylcyclohexyl)methyl)amino)-5-nitropyridin-3-yl)sulfonyl)benzamide], the IC50 in the assay with RS4;11-BCL-2 G101V cells (Homo sapiens), in the assay with RS4;11-BCL-2 F104L cells (Homo sapiens) and in the assay with RS4;11-BCL-2 D103E cells was 1 nM each time.

As for `COc1cc(CN2CCN(C3CC4(CCN(c5ccc(C(=O)NS(=O)(=O)c6cnc(NC[C@H]7CC[C@](C)(O)CC7)c([N+](=O)[O-])c6)c(Oc6cc7c(F)c[nH]c7nc6OC)c5)CC4)C3)[C@H](c3ccccc3C(C)C)C2)cc(Cl)n1` [Example 54, 4-(2-((R)-4-((2-chloro-6-methoxypyridin-4-yl)methyl)-2-(2-isopropylphenyl)piperazin-1-yl)-7-azaspiro [3.5]nonan-7-yl)-2-((3-fluoro-6-methoxy-1H-pyrrolo[2,3-b]pyridin-5-yl)oxy)-N-((6-((((1r,4r)-4-hydroxy-4-methylcyclohexyl)methyl)amino)-5-nitropyridin-3-yl)sulfonyl)benzamide], the IC50 in the assay with RS4;11-BCL-2 G101V cells (Homo sapiens), in the assay on RS4;11-BCL-2 F104L cells (Homo sapiens) and in the assay on RS4;11-BCL-2 D103E cells was 1 nM each time.

Regarding `CC(C)c1ccccc1[C@@H]1CN(Cc2ccc(Cl)cc2)CCN1C1CC2(CCN(c3ccc(C(=O)NS(=O)(=O)c4cnc(NCC5CCC(C)(O)CC5)c([N+](=O)[O-])c4)c(Oc4cnc5[nH]cc(F)c5c4)c3)CC2)C1` (stereo partly drawn) [Example 229, 4-(2-((R)-4-(4-chlorobenzyl)-2-(2-isopropylphenyl)piperazin-1-yl)-7-azaspiro[3.5]nonan-7-yl)-2-((3-fluoro-1H-pyrrolo[2,3-b]pyridin-5-yl)oxy)-N-((6-((((1r,4r)-4-hydroxy-4-methylcyclohexyl)methyl)amino)-5-nitropyridin-3-yl)sulfonyl)benzamide], the IC50 with Toledo cells, in the assay with RS4;11-BCL-2 G101V cells and in the assay on RS4;11-BCL-2 F104L cells was 1 nM each time.

Take `CC(C)c1ccccc1[C@@H]1CN(Cc2ccc(F)cc2)CCN1C1CC2(CCN(c3ccc(C(=O)NS(=O)(=O)c4cnc(NC[C@H]5CC[C@](C)(O)CC5)c([N+](=O)[O-])c4)c(Oc4cnc5[nH]cc(F)c5c4)c3)CC2)C1` [Example 232, 2-((3-fluoro-1H-pyrrolo[2,3-b]pyridin-5-yl)oxy)-4-(2-((R)-4-(4-fluorobenzyl)-2-(2-isopropylphenyl)piperazin-1-yl)-7-azaspiro[3.5]nonan-7-yl)-N-((6-((((1r,4r)-4-hydroxy-4-methylcyclohexyl)methyl)amino)-5-nitropyridin-3-yl)sulfonyl)benzamide]: the IC50 with Toledo cells (Homo sapiens), with RS4;11-BCL-2 G101V cells (Homo sapiens) and in the assay with RS4;11-BCL-2 F104L cells (Homo sapiens) was 1 nM in each case.

Take `COc1nc2[nH]cc(F)c2cc1Oc1cc(N2CCC3(CC2)CC(N2CCN(Cc4ccc5c(c4)OCO5)C[C@H]2c2ccccc2C(C)C)C3)ccc1C(=O)NS(=O)(=O)c1cnc(NC[C@H]2CC[C@](C)(O)CC2)c([N+](=O)[O-])c1` [Example 353, 4-(2-((R)-4-(benzo[d][1,3]dioxol-5-ylmethyl)-2-(2-isopropylphenyl)piperazin-1-yl)-7-azaspiro [3.5]nonan-7-yl)-2-((3-fluoro-6-methoxy-1H-pyrrolo[2,3-b]pyridin-5-yl)oxy)-N-((6-((((1r,4r)-4-hydroxy-4-methylcyclohexyl)methyl)amino)-5-nitropyridin-3-yl)sulfonyl)benzamide]: the IC50 in the assay with Toledo cells (Homo sapiens), in the assay on RS4;11-BCL-2 G101V cells (Homo sapiens) and with RS4;11-BCL-2 F104L cells (Homo sapiens) was 1 nM throughout.

As for `CC(C)c1ccccc1[C@@H]1CN(Cc2ccc3c(c2)OCO3)CCN1C1CC2(CCN(c3ccc(C(=O)NS(=O)(=O)c4cnc(NC[C@H]5CC[C@](C)(O)CC5)c([N+](=O)[O-])c4)c(Oc4cnc5[nH]cc(F)c5c4)c3)CC2)C1` [Example 354, 4-(2-((R)-4-(benzo[d][1,3]dioxol-5-ylmethyl)-2-(2-isopropylphenyl)piperazin-1-yl)-7-azaspiro[3.5]nonan-7-yl)-2-((3-fluoro-1H-pyrrolo[2,3-b]pyridin-5-yl)oxy)-N-((6-((((1r,4r)-4-hydroxy-4-methylcyclohexyl)methyl)amino)-5-nitropyridin-3-yl)sulfonyl)benzamide], the IC50 with Toledo cells (Homo sapiens), in the assay on RS4;11-BCL-2 G101V cells (Homo sapiens) and in the assay with RS4;11-BCL-2 F104L cells (Homo sapiens) was 1 nM throughout.

As for `COc1nc2[nH]cc(F)c2cc1Oc1cc(N2CCC3(CC2)CC(N2CCN(Cc4ccnc(C)c4)C[C@H]2c2ccccc2C(C)C)C3)ccc1C(=O)NS(=O)(=O)c1cnc(NC[C@H]2CC[C@](C)(O)CC2)c([N+](=O)[O-])c1` [Example 355, 2-((3-fluoro-6-methoxy-1H-pyrrolo[2,3-b]pyridin-5-yl)oxy)-N-((6-((((1r,4r)-4-hydroxy-4-methylcyclohexyl)methyl)amino)-5-nitropyridin-3-yl)sulfonyl)-4-(2-((R)-2-(2-isopropylphenyl)-4-((2-methylpyridin-4-yl)methyl)piperazin-1-yl)-7-azaspiro[3.5]nonan-7-yl)benzamide], the IC50 in the assay on Toledo cells (Homo sapiens), in the assay with RS4;11-BCL-2 G101V cells (Homo sapiens) and in the assay on RS4;11-BCL-2 F104L cells (Homo sapiens) was 1 nM each time.

`Cc1cc(CN2CCN(C3CC4(CCN(c5ccc(C(=O)NS(=O)(=O)c6cnc(NC[C@H]7CC[C@](C)(O)CC7)c([N+](=O)[O-])c6)c(Oc6cnc7[nH]cc(F)c7c6)c5)CC4)C3)[C@H](c3ccccc3C(C)C)C2)ccn1` [Example 356, 2-((3-fluoro-1H-pyrrolo[2,3-b]pyridin-5-yl)oxy)-N-((6-((((1r,4r)-4-hydroxy-4-methylcyclohexyl)methyl)amino)-5-nitropyridin-3-yl)sulfonyl)-4-(2-((R)-2-(2-isopropylphenyl)-4-((2-methylpyridin-4-yl)methyl)piperazin-1-yl)-7-azaspiro[3.5]nonan-7-yl)benzamide]: the results for the 50% inhibitory concentration (IC50) in the assay with Toledo cells (Homo sapiens), in the assay with RS4;11-BCL-2 G101V cells (Homo sapiens) and in the assay on RS4;11-BCL-2 F104L cells (Homo sapiens) were 1 nM, 1 nM and 2 nM, respectively.

`CC(C)c1ccccc1[C@@H]1CN(Cc2ccnc(Cl)c2)CCN1C1CC2(CCN(c3ccc(C(=O)NS(=O)(=O)c4cnc(NC[C@H]5CC[C@](C)(O)CC5)c([N+](=O)[O-])c4)c(Oc4cnc5[nH]cc(F)c5c4)c3)CC2)C1` [Example 358, 4-(2-((R)-4-((2-chloropyridin-4-yl)methyl)-2-(2-isopropylphenyl)piperazin-1-yl)-7-azaspiro[3.5]nonan-7-yl)-2-((3-fluoro-1H-pyrrolo[2,3-b]pyridin-5-yl)oxy)-N-((6-((((1r,4r)-4-hydroxy-4-methylcyclohexyl)methyl)amino)-5-nitropyridin-3-yl)sulfonyl)benzamide]: the results for the IC50 in the assay with Toledo cells (Homo sapiens), in the assay with RS4;11-BCL-2 G101V cells (Homo sapiens) and in the assay on RS4;11-BCL-2 F104L cells (Homo sapiens) were 1 nM, 1 nM and 2 nM, respectively.
